Where a name gives a salt, the structure may show the parent alone. Read-outs that look alike come from different tables or passages of the source.
Assays:
[1] = tested on: isolated rat liver mitochondria; experiment: Mitochondrial oxygen consumption (glutamate/malate or succinate driven, state 4 and state 3); format: biochemical; conditions: DMSO treated samples set as 1; on State 3 respiration driven by succinate at 10XCmax: key: 0 indicates that the drug had no effects (negative); on State 3 respiration driven by succinate at 1XCmax: key: 0 indicates that the drug had no effects (negative)
Procedure, shortened: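 Oxygen uptake on glutamate/malate or on succinate defined state 4; ADP added 3 min later gave state 3. Mitochondria isolated from rat liver by differential centrifugation, adjusted to 1 mg/ml and pretreated 5 min with inhibitor (0.1% DMSO final). Values relative to DMSO control, set to 1.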

RCC I = RCC I activity in submitochondrial particles; format: biochemical, rat; design: key to RCC I at 10XCmax / RCC I at 100XCmax / RCC I at 50XCmax / RCC I at 30XCmax / RCC I at 20XCmax: activity relative to DMSO-treated controls (control set as 1 = 100%); conditions: 10XCmax; relative to DMSO treated samples
Procedure, shortened: (§1)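 Rat submitochondrial particles (1 mg/ml) were treated with test compounds for 15 min. RCC IV, like RCC III, was monitored at 550 nm every 10 s for 2 min, and RCC I/V at 340 nm each minute for 6 min. DMSO samples defined unit activity.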

RCC II = target: T1, RCC II (Rattus norvegicus, UniProt P21913+Q641Z9+Q6PCT8+Q920L2); experiment: RCC II activity in submitochondrial particles; format: biochemical; design: key: activity relative to DMSO-treated controls (control set as 1 = 100%); conditions: relative to DMSO treated samples
T1 construct: Submitochondrial particles were prepared by subjecting the intact mitochondria to three successive freeze–thaw cycles; from tissue; host or cells: rat liver mitochondria, used as submitochondrial particles
Procedure, shortened: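 Activity relative to DMSO (set as 1) after 15-min exposure of submitochondrial particles (1 mg/ml) to compound. RCC I is defined as rotenone-sensitive activity and RCC II is followed at 600 nm over 6 min.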

RCC V = RCC V activity in submitochondrial particles; format: biochemical, rat; conditions: relative to DMSO treated samples; on RCC V at 5XCmax: key: 0 indicates that the drug had no effects (negative)
Procedure, shortened: as §1

[2] = tested on: isolated rat liver mitochondria; experiment: Mitochondrial inner membrane potential (MMP), Rhodamine 123; format: biochemical; conditions: difference in signal between KI and DMSO treated samples at the end of experiments
From the text: Fig. 3 KI effects on mitochondrial inner membrane potential (MMP). […] In a, c, data are means and standard derivations from three separate experiments. *p < 0.05 as compared to DMSO-treated samples at the end of experiments. In b, data are means of two independent experiments

[3] = tested on: isolated rat liver mitochondria; experiment: Mitochondrial swelling (absorbance at 535 nm); format: biochemical; conditions: difference in signal between KI and DMSO treated samples at the end of experiments; on Swelling 5XCmax: key: 0 indicates that the drug had no effects (negative)
[4] = Solubility of drug in DMSO stock / reaction buffer at multiples of Cmax; format: physicochemical
From the text: Supplement 204_2016_1918_MOESM3_ESM.xlsx, sheet "Sheet1" | column: 100 Cmax; 50 Cmax; note

[5] = tested on: isolated rat liver mitochondria; conditions: positive control alamethicin treated samples
[6] = design: method as in product labeling; conditions: ref product labeling, cited from earlier work
[7] = therapeutic maximal blood concentration, ref product labeling, cited from earlier work
[8] = cited from earlier work
[9] = tested on: isolated rat liver mitochondria; experiment: Mitochondrial ROS production (CM-H2DCFDA); conditions: DMSO treated samples set as 1

T1 sequence (Q920L2 35-656): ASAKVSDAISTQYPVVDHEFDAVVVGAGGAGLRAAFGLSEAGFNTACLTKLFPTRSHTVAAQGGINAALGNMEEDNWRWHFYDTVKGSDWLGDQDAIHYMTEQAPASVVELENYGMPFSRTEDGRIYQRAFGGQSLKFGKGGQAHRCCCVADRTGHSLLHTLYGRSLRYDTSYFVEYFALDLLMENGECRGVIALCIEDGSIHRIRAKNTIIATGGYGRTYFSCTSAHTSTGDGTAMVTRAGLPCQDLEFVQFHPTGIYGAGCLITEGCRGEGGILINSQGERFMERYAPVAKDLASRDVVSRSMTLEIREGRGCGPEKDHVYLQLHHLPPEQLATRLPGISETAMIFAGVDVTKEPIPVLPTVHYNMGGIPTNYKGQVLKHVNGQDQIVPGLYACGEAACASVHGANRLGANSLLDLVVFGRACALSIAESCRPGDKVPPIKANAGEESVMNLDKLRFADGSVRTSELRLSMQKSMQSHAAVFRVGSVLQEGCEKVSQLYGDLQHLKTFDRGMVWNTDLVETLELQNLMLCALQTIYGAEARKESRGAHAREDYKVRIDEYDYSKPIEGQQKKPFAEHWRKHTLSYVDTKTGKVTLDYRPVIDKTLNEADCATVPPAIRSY
T1 sequence (P21913 31-282): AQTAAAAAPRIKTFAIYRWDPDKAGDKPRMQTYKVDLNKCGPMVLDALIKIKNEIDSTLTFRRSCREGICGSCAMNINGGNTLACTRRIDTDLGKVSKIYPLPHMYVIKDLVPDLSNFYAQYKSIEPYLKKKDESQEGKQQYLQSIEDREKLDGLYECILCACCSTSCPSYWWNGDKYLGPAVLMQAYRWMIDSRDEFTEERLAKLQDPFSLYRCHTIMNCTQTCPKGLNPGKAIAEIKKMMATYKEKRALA
T1 sequence (Q641Z9 1-169): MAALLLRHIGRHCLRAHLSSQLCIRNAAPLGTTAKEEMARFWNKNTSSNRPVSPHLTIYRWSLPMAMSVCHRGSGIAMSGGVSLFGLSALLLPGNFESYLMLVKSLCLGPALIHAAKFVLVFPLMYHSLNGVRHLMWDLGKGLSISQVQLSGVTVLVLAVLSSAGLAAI
T1 sequence (Q6PCT8 57-159): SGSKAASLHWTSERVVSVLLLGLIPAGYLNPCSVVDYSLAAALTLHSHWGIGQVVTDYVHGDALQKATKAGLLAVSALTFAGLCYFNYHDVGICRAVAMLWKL

## C#Cc1cccc(Nc2ncnc3cc(OCCOC)c(OCCOC)cc23)c1 [erlotinib hydrochloride]
[1]; 1XCmax
  State 3 respiration driven by glutamate/malate at 1XCmax: 0
  State 3 respiration driven by succinate at 1XCmax: 0
  State 4 respiration driven by glutamate/malate at 1XCmax: 0
  State 4 respiration driven by succinate at 1XCmax: 0
[1]; 2.5XCmax
  State 3 respiration driven by glutamate/malate at 2.5XCmax: 0
  State 3 respiration driven by succinate at 2.5XCmax: 0
  State 4 respiration driven by glutamate/malate at 2.5XCmax: 0
  State 4 respiration driven by succinate at 2.5XCmax: 0
[1]; 5XCmax
  State 3 respiration driven by glutamate/malate at 5XCmax: 0
  State 3 respiration driven by succinate at 5XCmax: 0
  State 4 respiration driven by glutamate/malate at 5XCmax: 0
  State 4 respiration driven by succinate at 5XCmax: 0
[1]; 10XCmax
  State 3 respiration driven by glutamate/malate at 10XCmax: 0
  State 3 respiration driven by succinate at 10XCmax: 0
  State 4 respiration driven by glutamate/malate at 10XCmax: 0
  State 4 respiration driven by succinate at 10XCmax: 0
RCC I
  RCC I at 10XCmax: 0
RCC II; 1.0XCmax
  RCC II at 1.0XCmax: 0
RCC II; 2.5XCmax
  RCC II at 2.5XCmax: 0
RCC II; 5XCmax
  RCC II at 5XCmax: 0
RCC II; 10XCmax
  RCC II at 10XCmax: 0
RCC V; 5XCmax
  RCC V at 5XCmax: 0
RCC V; 10XCmax
  RCC V at 10XCmax: 83.52±2.96
[2]; 1XCmax
  MMP measured by Rhodamine 123 at 1XCmax: 0
[2]; 2.5XCmax
  MMP measured by Rhodamine 123 at 2.5XCmax: 0
[2]; 5XCmax
  MMP measured by Rhodamine 123 at 5XCmax: 0
[2]; 10XCmax
  MMP measured by Rhodamine 123 at 10XCmax: 0
[3]; 1XCmax
  Swelling 1XCmax: 0
[3]; 2.5XCmax
  Swelling 2.5XCmax: 0
[3]; 5XCmax
  Swelling 5XCmax: 0
[3]; 10XCmax
  Swelling 10XCmax: 0
[4]; DMSO stock for 50 Cmax
  Solubility of stock for 50 Cmax: not soluble
[4]; DMSO stock for 100 Cmax
  Solubility of stock for 100 Cmax: not soluble
[5]; 1XCmax
  Cytochrome c release 1XCmax: 0
[5]; 2.5XCmax
  Cytochrome c release 2.5XCmax: 0
[5]; 5XCmax
  Cytochrome c release 5XCmax: 0
[5]; 10XCmax
  Cytochrome c release 10XCmax: 0
[6]; BBW: black box warning, W&P: Warnings and Precautions
  Labeling for cardiotoxicity: W&P: Myocardial Infarction/Ischemia
[6]
  Potential for cardiotoxicity (based on labeling): 1
[7]; read-out: Cmax at µM
  Cmax: 3.44 µM
[7]
  Cmax: 1480 ng/mL
[8]; 1 = DILI positive, 0 = negative, ref product labeling
  DILI potential (based on labeling): 1
[8]; in vivo
  Labeling for DILI: W&P: fatal DILI
[9]; 1XCmax
  ROS measured by CM-H2DCFDA at 1XCmax: 0
[9]; 2.5XCmax
  ROS measured by CM-H2DCFDA at 2.5XCmax: 0
[9]; 5XCmax
  ROS measured by CM-H2DCFDA at 5XCmax: 0
[9]; 10XCmax
  ROS measured by CM-H2DCFDA at 10XCmax: 0

— publication PMC5515969, “Effects of 31 FDA approved small-molecule kinase inhibitors on isolated rat liver mitochondria” (Archives of Toxicology, 2016)
